The nature of this assay: Biological Assay: Cell Culture and plating: HEK293 cells expressing NR1/NR2A (Chantest, Cleveland, Ohio) were grown to 70-80% confluency as an adherent monolayer in standard tissue culture flasks at 37° C., 5% CO2 per supplier's instructions. NR2A expression was induced by incubation with 0.3-0.4 μg/ml tetracycline in the presence of 4 mM ARL-15896 for 18-24 hours under the same growth conditions, then transferred to 30° C. for another 3-5 hours.After induction, cell culture medium was removed and cells were rinsed once with Ca2+ and Mg2+-free Dulbecco's phosphate buffered saline. Cells were then removed from the flask using TrypLE Express (Life Technologies) according to the manufacturer's instructions and collected to 50 ml centrifuge tubes. Following two washes in Ca2+/Mg2+-free HBSS with 20 mM HEPES (HHnoCa), cells were counted and viability assessed using trypan blue. To load cells with Ca2+-sensitive dye, they were resuspended in fluo-8 plus Component B (AAT Bioquest Products) diluted in HHnoCa and incubated 15 minutes at 37° C., followed by 30 minutes at room temp (in dark). Cells were then washed and resuspended in HHnoCa to remove extracellular dye and plated in 384-well plates (Falcon, uncoated) at 20,000-30,000 cells/well in a final volume of 25 μL/well.

Consider one molecule from ChEMBL document CHEMBL5727017, “N-arylmethyl sulfonamide negative modulators of NR2A” (2018).

By IC50 is commonly meant the concentration needed to halve the response being measured.

For the molecule `Cc1ncc(CNC(=O)c2ccc(CNS(=O)(=O)c3c(C)noc3C)cn2)s1`, the IC50 was 10 µM.
